From patent EP4635976A1, “CONSTANT UNI-TABS” (Medigene Immunotherapies GmbH, priority 2024, dated 2025)
Marks after values point to notes of the source that are not given here.

Legend:
Assay in all cases: Peptide mismatched library: peptide-loaded T2 cells co-cultured with TCR-transduced CD8+ T cells, IFN-γ-ELISA
Format in all cases: cell-based
[1] = tested on: NY-ESO-A199_PD1-41 BB TCR (UniTAB1); conditions: CD8^+ T cells transduced with NY-ESO-A199_PD1-41 BB TCR (UniTAB1), mismatch peptide loaded on T2 cells, IFNg-ELISA; for IFN-γ [pg/ml production] MIT038 UniTABs-A199: donor MIT038
Text: (§1) The aim was to further compare the WT NY-ESO-1 with two UNI-TABS NY-ESO-TCRs (Position A199 in loop 1 and A245 in loop 2) in combination with PD1_41 BB regarding allogeneic HLA cross-recognition and HLA fine typing.
(§2) To test a peptide mismatched library, 336 different mismatched peptides, differing from 1-4 amino acids from the wild-type peptide recognized by the WT TCR were loaded on T2 cells and co-cultured with CD8^+ T cell transduced with either wt NY-ESO_PD1-41 BB TCR, NY-ESO-UniTABS-A199_PD1-41 BB TCR or NY-ESO-UniTABS-A245_PD1-41 BB TCR. The culture supernatant was collected, and an IFN-γ-ELISA performed.
(§3) The sequences and the numbers of the respective mismatch peptides are listed. The cells contain the values of IFN-γ [pg/ml production]. BetaA199: UniTAB epitope set forth in SEQ ID NO: 47 inserted in loop1 at position A199 flanked by GSG linker sequences, BetaA245: UniTAB epitope set forth in SEQ ID NO: 47 inserted in loop 2 at position A245 flanked by GSG linker sequences. Table 2: Mismatched peptides recognized by NY-ESO WT and NY-ESO variants

[2] = tested on: WT NY-ESO_PD1-41 BB TCR ("SWAT"); conditions: for IFN-γ [pg/ml production] MIT038 SWAT: donor MIT038; for IFN-γ [pg/ml production] MIT038 SWAT / IFN-γ [pg/ml production] MIT 045 SWAT: CD8^+ T cells transduced with WT NY-ESO_PD1-41 BB TCR (SWAT), mismatch peptide loaded on T2 cells, IFNg-ELISA; for IFN-γ [pg/ml production] MIT 045 SWAT: donor MIT045
Text: as §1, §2, §3

[3] = tested on: NY-ESO-A245_PD1-41 BB TCR (UniTAB2); conditions: donor MIT045; CD8^+ T cells transduced with NY-ESO-A245_PD1-41 BB TCR (UniTAB2); mismatch peptide loaded on T2 cells; IFNg-ELISA
Text: as §1, §2, §3

| Sequence | IFN-γ [pg/ml production] MIT038 UniTABs-A199 [1] | IFN-γ [pg/ml production] MIT038 SWAT [2] | IFN-γ [pg/ml production] MIT 045 SWAT [2] | IFN-γ [pg/ml production] MIT 045 UniTABs-A245 [3] | IFN-γ [pg/ml production] MIT 045 UniTABs-A199 ([1]; donor MIT045) | recognition of mismatched peptide (IFN-γ response) ([2]; WT TCR-PD1-41BB transduced T cells, two donors) |
| --- | --- | --- | --- | --- | --- | --- |
| SLLCYIKHC [compound 239] | 312.2** pg/ml | 228.6** pg/ml | 32.1** pg/ml | – | – | – |
| NLLFWICGC [compound 221] | 900.2* pg/ml | 788.9* pg/ml | 100.6* pg/ml | 0.0* pg/ml | 889.3* pg/ml | – |
| ICLQWITQC [compound 8] | – | – | 24.7**** pg/ml | – | – | only recognized by WT TCR transduced T cells of one donor |
